± gives the standard deviation of the averaged measurements.
tested on: HCI-011.E2 (organoid from an ER-positive breast cancer xenograft); experiment: CTG-3D luminescence at 96 h relative to day-0 seeding control (ratio to day 0); higher = more growth / less cytotoxicity; PDxO 3D drug screen, 96 h, CTG-3D normalised to day-0 seeding control.; conditions: 0.1 µM; days in culture: 74

| SMILES | CTG-3D luminescence at 96 h |
| --- | --- |
| C[C@H](NC(=O)CCC(F)(F)F)C(=O)N[C@@H]1C(=O)N(CCO)c2ncccc2-c2ccccc21 [crenigacestat] | 2.06 |
| COc1cccc2c1C(=O)c1c(O)c3c(c(O)c1C2=O)C[C@@](O)(C(=O)CO)C[C@@H]3O[C@H]1C[C@H](N)[C@H](O)[C@H](C)O1 [doxorubicin] | 2.07 |
| C[C@]12CC[C@@H]3c4ccc(O)cc4C[C@@H](CCCCCCCCC[S+]([O-])CCCC(F)(F)C(F)(F)F)[C@H]3[C@@H]1CC[C@@H]2O (stereo partly specified) [fulvestrant] | 2.1 |
| Nc1ccn([C@@H]2O[C@H](CO)[C@@H](O)C2(F)F)c(=O)n1 [gemcitabine] | 2.09 |
| C=CC(=O)N1CCC[C@@H](n2nc(-c3ccc(Oc4ccccc4)cc3)c3c(N)ncnc32)C1 [ibrutinib] | 2.48 |
| CN(Cc1cnc2nc(N)nc(N)c2n1)c1ccc(C(=O)N[C@@H](CCC(=O)O)C(=O)O)cc1 [methotrexate] | 2.27 |
| CC1(C)CCC(c2ccc(Cl)cc2)=C(CN2CCN(c3ccc(C(=O)NS(=O)(=O)c4ccc(N[C@H](CCN5CCOCC5)CSc5ccccc5)c(S(=O)(=O)C(F)(F)F)c4)cc3)CC2)C1 [navitoclax] | 2.38 |
| NC(=O)c1cccc2cn(-c3ccc([C@@H]4CCCNC4)cc3)nc12 [niraparib] | 1.97 |

same assay, conditions: 1 µM

| SMILES | CTG-3D luminescence at 96 h |
| --- | --- |
| C[C@H](NC(=O)CCC(F)(F)F)C(=O)N[C@@H]1C(=O)N(CCO)c2ncccc2-c2ccccc21 [crenigacestat] | 1.59 ± 0.29 |
| COc1cccc2c1C(=O)c1c(O)c3c(c(O)c1C2=O)C[C@@](O)(C(=O)CO)C[C@@H]3O[C@H]1C[C@H](N)[C@H](O)[C@H](C)O1 [doxorubicin] | 1.42 ± 0.53 |
| C[C@]12CC[C@@H]3c4ccc(O)cc4C[C@@H](CCCCCCCCC[S+]([O-])CCCC(F)(F)C(F)(F)F)[C@H]3[C@@H]1CC[C@@H]2O (stereo partly specified) [fulvestrant] | 1.37 ± 0.65 |
| Nc1ccn([C@@H]2O[C@H](CO)[C@@H](O)C2(F)F)c(=O)n1 [gemcitabine] | 1.54 ± 0.68 |
| C=CC(=O)N1CCC[C@@H](n2nc(-c3ccc(Oc4ccccc4)cc3)c3c(N)ncnc32)C1 [ibrutinib] | 2.1 ± 0.56 |
| CN(Cc1cnc2nc(N)nc(N)c2n1)c1ccc(C(=O)N[C@@H](CCC(=O)O)C(=O)O)cc1 [methotrexate] | 1.62 ± 0.63 |
| CC1(C)CCC(c2ccc(Cl)cc2)=C(CN2CCN(c3ccc(C(=O)NS(=O)(=O)c4ccc(N[C@H](CCN5CCOCC5)CSc5ccccc5)c(S(=O)(=O)C(F)(F)F)c4)cc3)CC2)C1 [navitoclax] | 1.52 ± 0.53 |
| NC(=O)c1cccc2cn(-c3ccc([C@@H]4CCCNC4)cc3)nc12 [niraparib] | 1.7 ± 0.66 |

same assay, conditions: 1 µM; days in culture: 74

| SMILES | CTG-3D luminescence at 96 h |
| --- | --- |
| C[C@H](NC(=O)CCC(F)(F)F)C(=O)N[C@@H]1C(=O)N(CCO)c2ncccc2-c2ccccc21 [crenigacestat] | 2.51 |
| COc1cccc2c1C(=O)c1c(O)c3c(c(O)c1C2=O)C[C@@](O)(C(=O)CO)C[C@@H]3O[C@H]1C[C@H](N)[C@H](O)[C@H](C)O1 [doxorubicin] | 1.65 |
| C[C@]12CC[C@@H]3c4ccc(O)cc4C[C@@H](CCCCCCCCC[S+]([O-])CCCC(F)(F)C(F)(F)F)[C@H]3[C@@H]1CC[C@@H]2O (stereo partly specified) [fulvestrant] | 2.1 |
| Nc1ccn([C@@H]2O[C@H](CO)[C@@H](O)C2(F)F)c(=O)n1 [gemcitabine] | 2.18 |
| C=CC(=O)N1CCC[C@@H](n2nc(-c3ccc(Oc4ccccc4)cc3)c3c(N)ncnc32)C1 [ibrutinib] | 2.83 |
| CN(Cc1cnc2nc(N)nc(N)c2n1)c1ccc(C(=O)N[C@@H](CCC(=O)O)C(=O)O)cc1 [methotrexate] | 2.49 |
| CC1(C)CCC(c2ccc(Cl)cc2)=C(CN2CCN(c3ccc(C(=O)NS(=O)(=O)c4ccc(N[C@H](CCN5CCOCC5)CSc5ccccc5)c(S(=O)(=O)C(F)(F)F)c4)cc3)CC2)C1 [navitoclax] | 2.09 |
| NC(=O)c1cccc2cn(-c3ccc([C@@H]4CCCNC4)cc3)nc12 [niraparib] | 1.88 |

same assay, conditions: 10 µM

| SMILES | CTG-3D luminescence at 96 h |
| --- | --- |
| C[C@H](NC(=O)CCC(F)(F)F)C(=O)N[C@@H]1C(=O)N(CCO)c2ncccc2-c2ccccc21 [crenigacestat] | 1.95 ± 0.64 |
| COc1cccc2c1C(=O)c1c(O)c3c(c(O)c1C2=O)C[C@@](O)(C(=O)CO)C[C@@H]3O[C@H]1C[C@H](N)[C@H](O)[C@H](C)O1 [doxorubicin] | 0.122 ± 0.056 |
| C[C@]12CC[C@@H]3c4ccc(O)cc4C[C@@H](CCCCCCCCC[S+]([O-])CCCC(F)(F)C(F)(F)F)[C@H]3[C@@H]1CC[C@@H]2O (stereo partly specified) [fulvestrant] | 1.82 ± 0.47 |
| Nc1ccn([C@@H]2O[C@H](CO)[C@@H](O)C2(F)F)c(=O)n1 [gemcitabine] | 1.78 ± 0.39 |
| C=CC(=O)N1CCC[C@@H](n2nc(-c3ccc(Oc4ccccc4)cc3)c3c(N)ncnc32)C1 [ibrutinib] | 2.03 ± 0.32 |
| CN(Cc1cnc2nc(N)nc(N)c2n1)c1ccc(C(=O)N[C@@H](CCC(=O)O)C(=O)O)cc1 [methotrexate] | 2.08 ± 0.72 |
| CC1(C)CCC(c2ccc(Cl)cc2)=C(CN2CCN(c3ccc(C(=O)NS(=O)(=O)c4ccc(N[C@H](CCN5CCOCC5)CSc5ccccc5)c(S(=O)(=O)C(F)(F)F)c4)cc3)CC2)C1 [navitoclax] | 1.84 ± 0.31 |
| NC(=O)c1cccc2cn(-c3ccc([C@@H]4CCCNC4)cc3)nc12 [niraparib] | 1.55 ± 0.56 |

same assay, conditions: 10 µM; days in culture: 74

| SMILES | CTG-3D luminescence at 96 h |
| --- | --- |
| C[C@H](NC(=O)CCC(F)(F)F)C(=O)N[C@@H]1C(=O)N(CCO)c2ncccc2-c2ccccc21 [crenigacestat] | 2.95 |
| COc1cccc2c1C(=O)c1c(O)c3c(c(O)c1C2=O)C[C@@](O)(C(=O)CO)C[C@@H]3O[C@H]1C[C@H](N)[C@H](O)[C@H](C)O1 [doxorubicin] | 0.129 |
| C[C@]12CC[C@@H]3c4ccc(O)cc4C[C@@H](CCCCCCCCC[S+]([O-])CCCC(F)(F)C(F)(F)F)[C@H]3[C@@H]1CC[C@@H]2O (stereo partly specified) [fulvestrant] | 2.2 |
| Nc1ccn([C@@H]2O[C@H](CO)[C@@H](O)C2(F)F)c(=O)n1 [gemcitabine] | 2.75 |
| C=CC(=O)N1CCC[C@@H](n2nc(-c3ccc(Oc4ccccc4)cc3)c3c(N)ncnc32)C1 [ibrutinib] | 2.44 |
| CN(Cc1cnc2nc(N)nc(N)c2n1)c1ccc(C(=O)N[C@@H](CCC(=O)O)C(=O)O)cc1 [methotrexate] | 3.6 |
| CC1(C)CCC(c2ccc(Cl)cc2)=C(CN2CCN(c3ccc(C(=O)NS(=O)(=O)c4ccc(N[C@H](CCN5CCOCC5)CSc5ccccc5)c(S(=O)(=O)C(F)(F)F)c4)cc3)CC2)C1 [navitoclax] | 2.86 |
| NC(=O)c1cccc2cn(-c3ccc([C@@H]4CCCNC4)cc3)nc12 [niraparib] | 2.89 |

same assay, conditions: 100 µM

| SMILES | CTG-3D luminescence at 96 h |
| --- | --- |
| C[C@H](NC(=O)CCC(F)(F)F)C(=O)N[C@@H]1C(=O)N(CCO)c2ncccc2-c2ccccc21 [crenigacestat] | 1.98 ± 0.95 |
| COc1cccc2c1C(=O)c1c(O)c3c(c(O)c1C2=O)C[C@@](O)(C(=O)CO)C[C@@H]3O[C@H]1C[C@H](N)[C@H](O)[C@H](C)O1 [doxorubicin] | 0.0255 ± 0.022 |
| C[C@]12CC[C@@H]3c4ccc(O)cc4C[C@@H](CCCCCCCCC[S+]([O-])CCCC(F)(F)C(F)(F)F)[C@H]3[C@@H]1CC[C@@H]2O (stereo partly specified) [fulvestrant] | 1.73 ± 0.64 |
| Nc1ccn([C@@H]2O[C@H](CO)[C@@H](O)C2(F)F)c(=O)n1 [gemcitabine] | 1.6 ± 0.28 |
| C=CC(=O)N1CCC[C@@H](n2nc(-c3ccc(Oc4ccccc4)cc3)c3c(N)ncnc32)C1 [ibrutinib] | 0.00409 ± 0.00037 |
| CN(Cc1cnc2nc(N)nc(N)c2n1)c1ccc(C(=O)N[C@@H](CCC(=O)O)C(=O)O)cc1 [methotrexate] | 2.21 ± 0.71 |
| CC1(C)CCC(c2ccc(Cl)cc2)=C(CN2CCN(c3ccc(C(=O)NS(=O)(=O)c4ccc(N[C@H](CCN5CCOCC5)CSc5ccccc5)c(S(=O)(=O)C(F)(F)F)c4)cc3)CC2)C1 [navitoclax] | 0.144 ± 0.028 |
| NC(=O)c1cccc2cn(-c3ccc([C@@H]4CCCNC4)cc3)nc12 [niraparib] | 0.00155 ± 0.00027 |

same assay, conditions: 100 µM; days in culture: 74

| SMILES | CTG-3D luminescence at 96 h |
| --- | --- |
| C[C@H](NC(=O)CCC(F)(F)F)C(=O)N[C@@H]1C(=O)N(CCO)c2ncccc2-c2ccccc21 [crenigacestat] | 2.45 |
| COc1cccc2c1C(=O)c1c(O)c3c(c(O)c1C2=O)C[C@@](O)(C(=O)CO)C[C@@H]3O[C@H]1C[C@H](N)[C@H](O)[C@H](C)O1 [doxorubicin] | 0.0309 |
| C[C@]12CC[C@@H]3c4ccc(O)cc4C[C@@H](CCCCCCCCC[S+]([O-])CCCC(F)(F)C(F)(F)F)[C@H]3[C@@H]1CC[C@@H]2O (stereo partly specified) [fulvestrant] | 2.02 |
| Nc1ccn([C@@H]2O[C@H](CO)[C@@H](O)C2(F)F)c(=O)n1 [gemcitabine] | 2.12 |
| C=CC(=O)N1CCC[C@@H](n2nc(-c3ccc(Oc4ccccc4)cc3)c3c(N)ncnc32)C1 [ibrutinib] | 0.00445 |
| CN(Cc1cnc2nc(N)nc(N)c2n1)c1ccc(C(=O)N[C@@H](CCC(=O)O)C(=O)O)cc1 [methotrexate] | 2.24 |
| CC1(C)CCC(c2ccc(Cl)cc2)=C(CN2CCN(c3ccc(C(=O)NS(=O)(=O)c4ccc(N[C@H](CCN5CCOCC5)CSc5ccccc5)c(S(=O)(=O)C(F)(F)F)c4)cc3)CC2)C1 [navitoclax] | 0.137 |
| NC(=O)c1cccc2cn(-c3ccc([C@@H]4CCCNC4)cc3)nc12 [niraparib] | 0.00301 |
